Data from article PMC3714338 (Analytical biochemistry, 2013).

Target: Mtb APR (adenosine 5′-phosphosulfate reductase; also MtbAPSR) (Mycobacterium tuberculosis, UniProt P9WIK3)
Experiment: biochemical

Chain of Mtb APR (adenosine 5′-phosphosulfate reductase; also MtbAPSR) (P9WIK3 whole entry, looked up): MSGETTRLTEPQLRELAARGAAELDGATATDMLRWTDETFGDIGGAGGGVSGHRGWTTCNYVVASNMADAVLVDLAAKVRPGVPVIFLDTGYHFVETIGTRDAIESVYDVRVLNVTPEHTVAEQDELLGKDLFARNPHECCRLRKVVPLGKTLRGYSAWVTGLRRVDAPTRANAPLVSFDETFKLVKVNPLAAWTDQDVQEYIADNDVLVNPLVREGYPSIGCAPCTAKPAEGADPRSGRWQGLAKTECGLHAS

SMILES: Nc1ncnc2c1ncn2[C@@H]1O[C@H](COP(=O)(O)OP(=O)(O)O)[C@@H](O)[C@H]1O [ADP]
- Ki: 83 ± 0.2 µM
